Tests used:
Type in all cases: cell-based
MDA-MB-231 cells = test: In vitro invasion test (Boyden chamber), MDA-MB-231
Procedure: (§1) (0.5 nM) for a period of 20 hours. The untreated cells represent the control and determine a base invasion of 100%.
(§2) FIG. 3: A study of the involvement of EphA2 on the pro-invasive effects of proNGF. The invasion test is carried out on cells MDA-MB-231 (A), DU145 (B) and PC3 (C) transfected with a siRNA against EphA2 (siEphA2), TrkA (siTrkA) or a random siRNA (siCTRL). The transfected siCTRL cells are treated to provide a control and determine a base invasion of 100% (white column). […] The efficacy of the siRNA is measured by the western blot method through the use of specific antibodies against TrkA, EphA2, and actin (load control).
FIG. 10: Study on the effect of lestaurtinib (TrkA inhibitor) and EphrinA1-Fc (EphA2 inhibitor) and combination of treatment on invasion of breast cancer cells. […] Non-stimulated cells (“non stim”) of proNGF served as the control and determined a base invasion of 100% (white bar).
(§3) The Boyden Chambers (Transwell®; BD Biosciences; France) were recovered from a biological matrix (type 1 collagen from rats diluted to 400 μg·mL-1 in EMEM-0.1% FCS medium; Millipore). […] The number of cells was estimated after staining with Hoechst 33 258 (1 mM; 30 min; 20° C.) by counting the nuclei thereof using fluorescence microscopy on a total of 5 five randomly chosen fields (lens 10×; λ-excitation: 345 nm; λ-emission: 478 nm; Eclipse Ti) using the ImageJ software. […]

DU145 cells = test: In vitro invasion test (Boyden chamber), DU145
Procedure: as §1, §2
as §3, with “Millipore). The cells were then seeded with 100,000 cells/well on PET membranes (polyethylene terephtalate; dia.: 10.5 mm; porosity: 8 μm) of Boyden Chambers and held in an EMEM-0.1% FCS medium. […] (0.5 nM) in the lower part.” for “Millipore).”

PC3 cells = test: In vitro invasion test (Boyden chamber), PC3
Procedure: as §1, §2
as §3, with “Millipore). The cells were then seeded with 100,000 cells/well on PET membranes (polyethylene terephtalate; dia.: 10.5 mm; porosity: 8 μm) of Boyden Chambers and held in an EMEM-0.1% FCS medium. […] (0.5 nM) in the lower part.” for “Millipore).”

[1] = biological target: T1, TrkA/sortilin/EphA2 complex (Homo sapiens, UniProt Q99523); test: Immunoprecipitation of the TrkA/sortilin/EphA2 complex in cells MDA-MB-231 HA-TrkA; conditions: MDA-MB-231 HA-TrkA
T1 construct: expressed in transfected cells
T1 sequence (Q99523 78-831): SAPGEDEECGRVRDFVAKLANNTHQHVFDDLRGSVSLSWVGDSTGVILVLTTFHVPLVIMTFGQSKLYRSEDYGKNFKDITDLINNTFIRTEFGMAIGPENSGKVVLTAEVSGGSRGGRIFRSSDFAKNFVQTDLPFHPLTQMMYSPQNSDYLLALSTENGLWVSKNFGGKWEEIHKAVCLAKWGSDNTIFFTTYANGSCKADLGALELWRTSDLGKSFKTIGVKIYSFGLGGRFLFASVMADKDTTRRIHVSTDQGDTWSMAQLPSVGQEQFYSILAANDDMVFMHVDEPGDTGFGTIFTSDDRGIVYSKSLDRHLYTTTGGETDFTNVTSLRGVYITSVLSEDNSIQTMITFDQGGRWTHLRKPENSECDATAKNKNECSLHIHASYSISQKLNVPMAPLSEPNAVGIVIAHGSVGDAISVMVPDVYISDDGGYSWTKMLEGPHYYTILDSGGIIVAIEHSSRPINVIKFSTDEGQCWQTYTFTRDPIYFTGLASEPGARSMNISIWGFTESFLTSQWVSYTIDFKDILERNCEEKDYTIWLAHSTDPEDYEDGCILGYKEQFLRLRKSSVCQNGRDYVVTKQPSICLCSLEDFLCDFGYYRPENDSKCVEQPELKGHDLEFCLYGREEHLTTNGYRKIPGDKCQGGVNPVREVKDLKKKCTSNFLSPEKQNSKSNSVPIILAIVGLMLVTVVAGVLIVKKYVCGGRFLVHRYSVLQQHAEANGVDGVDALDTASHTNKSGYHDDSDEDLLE
Procedure: A. Cells MDA-MB-231 HA-TrkA were transfected with siTrkA and then treated with proNGF N.C.
D. Cells MDA-MB-231 HA-TrkA were transfected with siEphA2 and then treated with proNGF N.C. (30 min).
The sequences of siRNA used against EphA2 (siEphA2) at 100 pmol for each transfection, and against TrkA (pool of 3 siTrkA 1, 2 and 3) are given in table 1. The transfections of siRNA are produced by means of [sequence]in™ according to the manufacturers instructions (POL409-10, Polyplus transfection, Ozyme, Saint Quentin en Yvelines, France).
The beads (Protein G-agarose, Millipore) were washed twice (12,000 g; 1 min; 4° C.) and recovered in PBS IX (at 50% (v/v)). The protein samples (1 mg) were pre-clarified (1 h; 4° C.; on a wheel (10 rpm)) with 100 μl of beads and 5 μg of isotypical antibodies (mouse IgG2b), centrifuged (12,000 g; 2 min; 4° C.), then the supernatant was incubated (2 h; 4° C.; on a wheel (10 rpm)) with 5 μg of α-HA 12CA5 antibody (Roche). The beads (100 μL at 50% in PBS IX) were added directly to the antibody/protein complex then incubated (2 h; 4° C.; on a wheel (10 rpm)). The antibody/antigen/bead complexes were then centrifuged (12,000 g; 5 min; 4° C.), washed three times (lysis buffer; 4° C.), then disassociated by addition of Laemmli 2× buffer (25 mM Tris-HCl, 0.8% SDS, 4% glycerol, 1% β-mercaptoethanol, pH 6.8) (7 min; 100° C.). […]

[2] = NGF 16 nM or proNGF N.C. 0.5 nM, untreated cells = 100%
[3] = siRNA transfection vs siCTRL, proNGF

Substance | cell invasion under growth factor (MDA-MB-231 cells; [2]) | cell invasion under growth factor (DU145 cells; [2]) | cell invasion under growth factor (PC3 cells; [2]) | association of TrkA, sortilin and EphA2 (co-immunoprecipitation) under ligand treatment ([1]; 0.5 nM proNGF N.C. or 16 nM NGF, 5 and 30 min) | invasion induced by proNGF in siRNA-transfected cells (MDA-MB-231 cells; [3]) | invasion induced by proNGF in siRNA-transfected cells (DU145 cells; [3]) | invasion induced by proNGF in siRNA-transfected cells (PC3 cells; [3]) | formation of the TrkA/sortilin/EphA2 complex under proNGF with invalidation of a receptor ([1]; proNGF N.C., siRNA transfection or 1 μM neurotensin)
NGF: Nerve Growth Factor; recombinant human β NGF supplied by Scil Proteins | increased cell invasion | increased cell invasion | increased cell invasion | induce a delayed association of TrkA and sortilin but does not induce bonding with EphA2 | – | – | – | –
siEphA2: siRNA against EphA2, GCAAGGAAGUGGUACUGCUGGACUU (SEQ ID NO: 1) (listed as RNA, chemistry not given here) | – | – | – | – | abolished the invasion induced by proNGF | abolished the invasion induced by proNGF | abolished the invasion induced by proNGF | no bond was observed between EphA2 and TrkA

Source: patent publication US20170258871A1, “COMBINED USE OF A TRKA INHIBITOR AND AN EPHA2 INHIBITOR FOR USING IN THE TREATMENT OF SOLID CANCERS, AND METHOD FOR THE PROGNOSIS OF SURVIVAL OF A PATIENT WHO HAS A SOLID CANCER” (UNIVERSITE DES SCIENCES ET TECHNOLOGIES DE LILLE, priority 2014, published 2017)
